Each structure is given as a SMILES string. Read-outs that look alike come from different tables or passages of the source. Bounds are passed on as bounds.

In data set [1] the target is central benzodiazepine receptors. Put plainly: Affinity to central benzodiazepine receptors: inhibition of binding of tritiated flumazenil in rat cortex. The following applies: in vitro. As to the method:
The affinity of compounds of general formula I to the central benzodiazepine receptors was established in vitro according to the methods described in Nature 294, 763-765 (1981) and J. Neurochemistry 37, 714-722 (1981). According to these methods, the inhibition of the binding of tritiated flumazenil to the specific benzodiazepine receptors in the cortex of rats by the respective test substances is determined. The IC50 ("50% inhibiting concentration") denotes that concentration of the respective test substance which brings about a 50 per cent inhibition of the specific binding of tritiated flumazenil to the specific benzodiazepine receptors in the cortex of rats.

The nature of data set [2]: Rotating rod test (sedative/muscle relaxant properties), i.v. To be noted: Mus musculus, iv, mice. The format is in vivo. As to the method:
The sedative/muscle relaxant properties of the compounds of formula I in accordance with the invention can be determined, for example, in the rotating rod test. Mice weighing 19-21 g are used for this test. They have free access to feed and drinking water up to 1 hour before the beginning of the test. They are brought into the test laboratory at least 30 minutes before the test. In the rotating rod test the animals are placed on a horizontally arranged, smooth metal rod having a diameter of 3 cm, which is rotated at 2 revolutions per minute. Initially, the animals are given the opportunity of familiarizing themselves with the test situation for 30 seconds. Subsequently, those animals which succeed in remaining on the rod for at least 1 minute are selected. These animals are then given the test preparations intravenously in different dosages. At various points in time it is then determined whether the animals are able to remain on the rod for a minimum period (minimum period: 10 seconds; from 5 minutes after administration: 1 minute.). That dosages at which 50% of the animals are capable of remaining on the rod (ED 50) is determined.

Data set [3] is described as follows: Fatalities after i.v. administration to mice. Format: in vivo. The following applies: 32 and 100 mg/kg i.v.
A short description of data set [4]: Fatalities after i.v. administration to rats. Format: in vivo. To be noted: 32 and 100 mg/kg i.v.
Where [5] appears, read: 15 s, 15 sec after administration, read-out: Rotating rod test, ED50, 15 sec after administration.
[6] abbreviates: 0.5 min, 30 sec after administration, read-out: Rotating rod test, ED50, 30 sec after administration.
Setting [7] is: 1 min, 60 sec after administration, read-out: Rotating rod test, ED50, 60 sec after administration.
The mark [8] stands for this setting: 2 min, 2 min after administration, read-out: Rotating rod test, ED50, 2 min after administration.
The mark [9] stands for this setting: 5 min, 5 min after administration, read-out: Rotating rod test, ED50, 5 min after administration.
The mark [10] stands for this setting: 0.25 h, 15 min after administration, read-out: Rotating rod test, ED50, 15 min after administration.
[11] abbreviates: 0.5 h, 30 min after administration, read-out: Rotating rod test, ED50, 30 min after administration.
Where [12] appears, read: 1 h, 60 min after administration, read-out: Rotating rod test, ED50, 60 min after administration.

Take `CCCN(CCC)Cc1nnc(-c2ncn3c2CN(C)C(=O)c2c(Cl)cccc2-3)o1` [L, 7-chloro-3-(5-dipropylaminomethyl-1,3,4-oxadiazol-2-yl)-5-methyl-5,6-dihydro-4H-imidazo[1,5-a][1,4]benzodiazepin-6-one]: the IC50 in data set [1] turned out to be 4.5 nM. For the same compound, the ED50 in data set [2] (setting [5]) was 0.3 mg/kg; in data set [2] (setting [6]), 0.4 mg/kg; in data set [2] (setting [7]), 0.6 mg/kg; in data set [2] (setting [8]), 1.5 mg/kg; in data set [2] (setting [9]) it was 5 mg/kg; in data set [2] (setting [10]), greater than 10 mg/kg. In addition, the ED50 in data set [2] (setting [11]) and in data set [2] (setting [12]) was greater than 10 mg/kg each time.

For `CCN(CC)Cc1nc(-c2ncn3c2CN(C)C(=O)c2cc(F)ccc2-3)no1` [H, 3-(5-diethylaminomethyl-1,2,4-oxadiazol-3-yl)-8-fluoro-5-methyl-5,6-dihydro-4H-imidazo[1,5-a][1,4]benzodiazepin-6-one], the IC50 in data set [1] came out at 25 nM. Also, the ED50 in data set [2] (setting [5]) is 0.1 mg/kg; in data set [2] (setting [6]), 0.2 mg/kg; in data set [2] (setting [7]), 0.4 mg/kg; in data set [2] (setting [8]), 0.7 mg/kg; in data set [2] (setting [9]) it was 1.2 mg/kg; in data set [2] (setting [10]), 4.3 mg/kg. For the same compound, the ED50 was 5.1 mg/kg in data set [2] (setting [11]) and greater than 10 mg/kg in data set [2] (setting [12]).

In the case of `CCCN(CCC)Cc1nnc(-c2ncn3c2CN(C)C(=O)c2cc(F)ccc2-3)o1` [G, 3-(5-dipropylaminomethyl-1,3,4-oxadiazol-2-yl)-8-fluoro-5-methyl-5,6-dihydro-4H-imidazo[1,5-c][1,4]benzodiazepin-6-one], in data set [1], the IC50 was determined as 18.3 nM. Also, the ED50 was 0.3 mg/kg in data set [2] (setting [5]); 0.3 mg/kg in data set [2] (setting [6]); 0.7 mg/kg in data set [2] (setting [7]); 1.1 mg/kg in data set [2] (setting [8]); 3.6 mg/kg in data set [2] (setting [9]); no less than 10 mg/kg in data set [2] (setting [10]). Moreover, the ED50 in data set [2] (setting [11]) and in data set [2] (setting [12]) was greater than 10 mg/kg throughout.

As to `CCCN(CCC)Cc1nc(-c2ncn3c2[C@@H]2CCN2C(=O)c2sccc2-3)no1` [B, (S)-1-(5-dipropylaminomethyl-1,2,4-oxadiazol-3-yl)-11,11a-dihydro-8H,10H-azeto[1,2-a]imidazo[5,1-c]thieno[3,2-e][1,4]diazepin-8-one], the fatalities result in data set [3] and in data set [4] was “without fatalities occurring” in each case. Besides, the IC50 in data set [1] is 4.3 nM. Moreover, the ED50 was 0.1 mg/kg in data set [2] (setting [5]); 0.1 mg/kg in data set [2] (setting [6]); 0.2 mg/kg in data set [2] (setting [7]); 0.4 mg/kg in data set [2] (setting [8]); 0.7 mg/kg in data set [2] (setting [9]); 3.5 mg/kg in data set [2] (setting [10]). Also, the ED50 in data set [2] (setting [11]) and in data set [2] (setting [12]) was greater than 10 mg/kg throughout.

In the case of `CCCN(CCC)Cc1nc(-c2ncn3c2CN(C)C(=O)c2c(F)cccc2-3)no1` [J, 7-fluoro-5-methyl-3-(5-dipropylaminomethyl-1,2,4-oxadiazol-3-yl)-5,6-dihydro-4H-imidazo[1,5-a][1,4]benzodiazepin-6-one], in data set [1], the IC50 was found to be 2.3 nM. The ED50 was 0.1 mg/kg in data set [2] (setting [5]); 0.2 mg/kg in data set [2] (setting [6]); 0.3 mg/kg in data set [2] (setting [7]); 0.4 mg/kg in data set [2] (setting [8]); 1.1 mg/kg in data set [2] (setting [9]); greater than 10 mg/kg in data set [2] (setting [10]). Further, the ED50 in data set [2] (setting [11]) and in data set [2] (setting [12]) was greater than 10 mg/kg throughout.

`CCN(CC)Cc1nc(-c2ncn3c2[C@@H]2CCN2C(=O)c2sccc2-3)no1` [M, (S)-1-(5-diethylaminomethyl-1,2,4-oxadiazol-3-yl)-11,11a-dihydro-8H,10H-azeto[1,2-a]imidazo[5,1-c]thieno[3,2-e][1,4]diazepin-8-one] showed an IC50 in data set [1] of 6.5 nM. For the same compound, the ED50 in data set [2] (setting [5]) was 0.2 mg/kg; in data set [2] (setting [6]), 0.3 mg/kg; in data set [2] (setting [7]) it was 0.3 mg/kg; in data set [2] (setting [8]), 1.1 mg/kg; in data set [2] (setting [9]), 2.1 mg/kg; in data set [2] (setting [10]), greater than 10 mg/kg. In addition, the ED50 in data set [2] (setting [11]) and in data set [2] (setting [12]) was greater than 10 mg/kg in each case.

In data set [1], `CCN(CC)Cc1nc(-c2ncn3c2CN(C)C(=O)c2c(Cl)cccc2-3)no1` [K, 7-chloro-3-(5-diethylaminomethyl-1,2,4-oxadiazol-3-yl)-5-methyl-5,6-dihydro-4H-imidazo[1,5-a][1,4]benzodiazepin-6-one] had an IC50 of 1.4 nM. The ED50 is 0.1 mg/kg in data set [2] (setting [5]); 0.3 mg/kg in data set [2] (setting [6]); 0.3 mg/kg in data set [2] (setting [7]); 0.6 mg/kg in data set [2] (setting [8]); 2 mg/kg in data set [2] (setting [9]); no less than 10 mg/kg in data set [2] (setting [10]). Also, the ED50 in data set [2] (setting [11]) and in data set [2] (setting [12]) was no less than 10 mg/kg in each case.

Regarding `CCCCN(CCCC)Cc1nnc(-c2ncn3c2[C@@H]2CCN2C(=O)c2sccc2-3)o1` [N, (S)-1-(5-dibutylaminomethyl-1,3,4-oxadiazol-2-yl)-11,11a-dihydro-8H,10H-azeto[1,2-a]imidazo[5,1-c]thieno[3,2-e][1,4]diazepin-8-one], in data set [1], the 50% inhibitory concentration (IC50) worked out at 4.8 nM. Besides, the ED50 in data set [2] (setting [5]) is 0.3 mg/kg; in data set [2] (setting [6]), 0.3 mg/kg; in data set [2] (setting [7]), 0.3 mg/kg; in data set [2] (setting [8]) it was 0.6 mg/kg; in data set [2] (setting [9]), 2.4 mg/kg; in data set [2] (setting [10]), greater than 10 mg/kg. In addition, the ED50 in data set [2] (setting [11]) and in data set [2] (setting [12]) was greater than 10 mg/kg throughout.

For the compound `CC(C)N(Cc1nc(-c2ncn3c2CN(C)C(=O)c2ccccc2-3)no1)C(C)C` [O, 3-(5-diisopropylaminomethyl-1,2,4-oxadiazol-3-yl)-5-methyl-5,6-dihydro-4H-imidazo[1,5-a][1,4]benzodiazepin-6-one], the IC50 in data set [1] came to 6.4 nM. Further, the ED50 in data set [2] (setting [5]) is 0.3 mg/kg; in data set [2] (setting [6]), 0.5 mg/kg; in data set [2] (setting [7]), 0.7 mg/kg; in data set [2] (setting [8]), 1 mg/kg; in data set [2] (setting [9]) it was 3 mg/kg; in data set [2] (setting [10]), greater than 10 mg/kg. Also, the ED50 in data set [2] (setting [11]) and in data set [2] (setting [12]) was greater than 10 mg/kg each time.

For `CC(C)N(Cc1nc(-c2ncn3c2CN(C)C(=O)c2cc(F)ccc2-3)no1)C(C)C` [P, 3-(5-diisopropylaminomethyl-1,2,4-oxadiazol-3-yl)-8-fluoro-5-methyl-5,6-dihydro-4H-imidazo[1,5-a][1,4]benzodiazepin-6-one], the IC50 in data set [1] is 4.1 nM. In addition, the ED50 in data set [2] (setting [5]) amounted to 0.1 mg/kg; in data set [2] (setting [6]), 0.2 mg/kg; in data set [2] (setting [7]) it was 0.3 mg/kg; in data set [2] (setting [8]), 0.7 mg/kg; in data set [2] (setting [9]), 1 mg/kg; in data set [2] (setting [10]) it was 4.3 mg/kg. The ED50 in data set [2] (setting [11]) was no less than 10 mg/kg; in data set [2] (setting [12]), greater than 10 mg/kg.

As for `O=C1c2c(Cl)cccc2-n2cnc(-c3noc(CN4CCCCC4)n3)c2[C@@H]2CCN12` [I, (S)-8-chloro-1-[5-(piperidin-1-yl)methyl-1,2,4-oxadiazol-3-yl]-12,12a-dihydro-9H,11H-azeto[2,1-c]imidazo[1,5-a][1,4]benzodiazepin-9-one], the IC50 in data set [1] was determined as 4.4 nM. Moreover, the ED50 stood at 0.1 mg/kg in data set [2] (setting [5]); 0.7 mg/kg in data set [2] (setting [6]); 0.7 mg/kg in data set [2] (setting [7]); 1 mg/kg in data set [2] (setting [8]); 1.1 mg/kg in data set [2] (setting [9]); 3.1 mg/kg in data set [2] (setting [10]). Further, the results for the ED50 in data set [2] (setting [11]) and in data set [2] (setting [12]) were no less than 10 mg/kg and greater than 10 mg/kg, respectively.

Compound `CN1Cc2c(-c3noc(CN4CCCCC4)n3)ncn2-c2ccc(F)cc2C1=O` [C, 8-fluoro-5-methyl-3-[5-(piperidin-1-ylmethyl)-1,2,4-oxadiazol-3-yl]-5,6-dihydro-4H-imidazo[1,5-a][1,4]benzodiazepin-6-one] yielded an IC50 in data set [1] of 50 nM. Moreover, the ED50 in data set [2] (setting [5]) is 0.8 mg/kg; in data set [2] (setting [6]) it was 0.8 mg/kg; in data set [2] (setting [7]), 1.2 mg/kg; in data set [2] (setting [8]), 1.6 mg/kg; in data set [2] (setting [9]) it was 3.2 mg/kg; in data set [2] (setting [10]), no less than 10 mg/kg. In addition, the ED50 in data set [2] (setting [11]) and in data set [2] (setting [12]) was greater than 10 mg/kg each time.

In the case of `CCCN(CCC)Cc1nc(-c2ncn3c2CN(C)C(=O)c2ccccc2-3)no1` [F, 3-(5-dipropylaminomethyl-1,2,4-oxadiazol-3-yl)-5-methyl-5,6-dihydro-4H-imidazo[1,5-a][1,4]benzodiazepin-6-one], the IC50 in data set [1] was 6.9 nM. The ED50 in data set [2] (setting [5]) is 0.2 mg/kg; in data set [2] (setting [6]), 0.4 mg/kg; in data set [2] (setting [7]) it was 0.5 mg/kg; in data set [2] (setting [8]) it was 0.9 mg/kg; in data set [2] (setting [9]), no less than 10 mg/kg; in data set [2] (setting [10]), greater than 10 mg/kg. Moreover, the ED50 in data set [2] (setting [11]) and in data set [2] (setting [12]) was greater than 10 mg/kg in each case.

The record behind these values is patent publication US5665718A, “Imidazodiazepines” (Hoffmann-La Roche Inc., priority 1994, dated 1997).
